Test [1] deals with SREBP-2 (Homo sapiens (Human), UniProt Q12772). In words: In vitro assay SREBP-2: PathHunter U2OS SREBP-2 Nuclear Translocation Cell Line, U18666A-stimulated. The format is cell-based. Conditions: PathHunter U2OS SREBP-2 nuclear translocation cells, U18666A 10 μM, overnight (16 hours).
In test [2] the target is LXRβ (Homo sapiens (Human), UniProt P55055). In words: In vitro assay LXRβ: PathHunter NHR CHO cells, LXRβ / Steroid Receptor Co-activator Peptide enzyme fragment complementation. The following applies: PathHunter NHR CHO cells, full-length human LXRβ and SRCP, chemiluminescent signal; read-out: LXRβ PPI. The format is cell-based. The essentials: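 Enzyme fragment complementation read-out: CHO cells stably expressing ProLink-tagged full-length human LXRβ plus nuclear enzyme acceptor–SRCP fusion, seeded and held overnight at 37° C. Medium with charcoal-dextran filtered serum; final vehicle 1%. Chemiluminescence measured after signal generation.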
Chain of LXRβ (P55055 whole entry, the tested form may be a part): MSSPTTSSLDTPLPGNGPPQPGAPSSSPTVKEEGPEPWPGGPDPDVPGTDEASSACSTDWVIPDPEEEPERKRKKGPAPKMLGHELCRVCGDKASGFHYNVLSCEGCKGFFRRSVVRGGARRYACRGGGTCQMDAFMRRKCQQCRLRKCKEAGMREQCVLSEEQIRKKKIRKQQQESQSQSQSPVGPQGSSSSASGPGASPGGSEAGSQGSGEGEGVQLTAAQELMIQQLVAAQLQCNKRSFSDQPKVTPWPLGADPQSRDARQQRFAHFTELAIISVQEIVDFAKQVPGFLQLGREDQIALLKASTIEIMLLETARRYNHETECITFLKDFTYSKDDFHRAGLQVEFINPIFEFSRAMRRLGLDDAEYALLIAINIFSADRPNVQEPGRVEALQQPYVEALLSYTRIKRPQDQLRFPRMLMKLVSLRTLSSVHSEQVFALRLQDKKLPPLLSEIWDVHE

SMILES strings stand for the structures. A value given as a limit tells only on which side of the number the result lay.

The IC50 is the concentration that gives 50% inhibition. A higher IC50 goes with lower potency. As to `C[C@H](CCC(=O)N1OC(C)(C)[C@H]2COC[C@H]21)[C@H]1CC[C@H]2[C@@H]3CC=C4C[C@@H](O)CC[C@]4(C)[C@H]3CC[C@]12C` [Example 49, (R)-1-((3aR,6aS)-3,3-dimethyltetrahydro-1H,3H-furo[3,4-c]isoxazol-1-yl)-4-((3S,8S,9S,10R,13R,14S,17R)-3-hydroxy-10,13-dimethyl-2,3,4,7,8,9,10,11,12,13,14,15,16,17-tetradecahydro-1H-cyclopenta[a]phenanthren-17-yl)pentan-1-one], the concentration for half-maximal inhibition (IC50) in test [1] lay within 250 to 1000 nM. Moreover, the EC50 in test [2] is 250 to 1000 nM.
In test [1], `C[C@H](CCC(=O)N(C)C)[C@H]1CC[C@H]2[C@@H]3CC=C4C[C@](C)(O)CC[C@]4(C)[C@H]3CC[C@]12C` [Example 121, (R)-4-((3R,8S,9S,10R,13R,14S,17R)-3-hydroxy-3,10,13-trimethyl-2,3,4,7,8,9,10,11,12,13,14,15,16,17-tetradecahydro-1H-cyclopenta [a]phenanthren-17-yl) -N,N-dimethylpentanamide] registered an IC50 above 10000 nM. In test [2], the EC50 was in the range of 1000 to 10000 nM.
The like results for `C[C@H](CCC(=O)N1CCN(C(=O)N2CCC2)CC1)[C@H]1CC[C@H]2[C@@H]3CC=C4C[C@@H](O)CC[C@]4(C)[C@H]3CC[C@]12C` [Example 208, (R)-1-(4-(azetidine-1-carbonyl)piperazin-1-yl)-4-((3S,8S,9S,10R,13R,14S,17R)-3-hydroxy-10,13-dimethyl-2,3,4,7,8,9,10,11,12,13,14,15,16,17-tetradecahydro-1H-cyclopenta[a]phenanthren-17-yl)pentan-1-one] were, in that order, below 250 nM and above 10000 nM.
Take `C[C@H](CCc1ccc(F)cn1)[C@H]1CC[C@H]2[C@@H]3CC=C4C[C@@H](O)CC[C@]4(C)[C@H]3CC[C@]12C` [Example 162, (1R,3aS,3bS,7S,9aR,9bS,11aR)-1-[(2R)-4-(5-fluoropyridin-2-yl)butan-2-yl]-9a,11a-dimethyl-1H,2H,3H,3aH,3bH,4H,6H,7H,8H,9H,9aH,9bH,10H,11H,11aH-cyclopenta[a]phenanthren-7-ol]: in test [1], the IC50 is below 250 nM. In addition, the EC50 in test [2] was 1000 to 10000 nM.
Consider `C[C@H](CCC(=O)N1CCN(c2ccn(C3CC3)c2)CC1)[C@H]1CC[C@H]2[C@@H]3CC=C4C[C@@H](O)CC[C@]4(C)[C@H]3CC[C@]12C` [Example 516, (R)-1-(4-(1-cyclopropyl-1H-pyrrol-3-yl)piperazin-1-yl)-4-((3S,8S,9S,10R,13R,14S,17R)-3-hydroxy-10,13-dimethyl-2,3,4,7,8,9,10,11,12,13,14,15,16,17-tetradecahydro-1H-cyclopenta[a]phenanthren-17-yl)pentan-1-one], for which the half-maximal inhibitory concentration (IC50) in test [1] was below 250 nM. Also, in test [2], the EC50 is above 10000 nM.
For `C[C@H](CCC(=O)N1CCC(C)(CO)C1)[C@H]1CC[C@H]2[C@@H]3CC=C4C[C@@H](O)CC[C@]4(C)[C@H]3CC[C@]12C` (stereo in doubt) [Example 374, (4R)-4-[(1R,3aS,3bS,7S,9aR,9bS,11aR)-7-hydroxy-9a,11a-dimethyl-1H,2H,3H,3aH,3bH,4H,6H,7H,8H,9H,9aH,9bH,10H,11H,11aH-cyclopenta[a]phenanthren-1-yl]-1-[(3R)-3-(hydroxymethyl)-3-methylpyrrolidin-1-yl]pentan-1-one] the same measures were below 250 nM and 250 to 1000 nM.
The compound `CON(C(=O)CC[C@@H](C)[C@H]1CC[C@H]2[C@@H]3CC=C4C[C@@H](O)CC[C@]4(C)[C@H]3CC[C@]12C)[C@@H](C)CO` [Example 72, (R)-4-((3S,8S,9S,10R,13R,14S,17R)-3-hydroxy-10,13-dimethyl-2,3,4,7,8,9,10,11,12,13,14,15,16,17-tetradecahydro-1H-cyclopenta[a]phenanthren-17-yl)-N—((S)-1-hydroxypropan-2-yl)-N-methoxypentanamide] gave an IC50 in test [1] of 250 to 1000 nM. For the same compound, the EC50 in test [2] is 250 to 1000 nM.
`C[C@H](CCC(=O)N1CCC(C)(C(N)=O)CC1)[C@H]1CC[C@H]2[C@@H]3CC=C4C[C@@H](O)CC[C@]4(C)[C@H]3CC[C@]12C` [Example 85, 1-((R)-4-((3S,8S,9S,10R,13R,14S,17R)-3-hydroxy-10,13-dimethyl-2,3,4,7,8,9,10,11,12,13,14,15,16,17-tetradecahydro-1H-cyclopenta[a]phenanthren-17-yl)pentanoyl)-4-methylpiperidine-4-carboxamide] returned an IC50 in test [1] below 250 nM. For the same compound, the EC50 in test [2] is above 10000 nM.
For `C[C@H](CCC(=O)N1CCN(c2ccnc(N(C)C)n2)CC1)[C@H]1CC[C@H]2[C@@H]3CC=C4C[C@@H](O)CC[C@]4(C)[C@H]3CC[C@]12C` [Example 562, (R)-1-(4-(2-(dimethylamino)pyrimidin-4-yl)piperazin-1-yl)-4-((3S,8S,9S,10R,13R,14S,17R)-3-hydroxy-10,13-dimethyl-2,3,4,7,8,9,10,11,12,13,14,15,16,17-tetradecahydro-1H-cyclopenta[a]phenanthren-17-yl)pentan-1-one] the same measures were below 250 nM and above 10000 nM.
For `Cc1ccnc(CC[C@@H](C)[C@H]2CC[C@H]3[C@@H]4CC=C5C[C@@H](O)CC[C@]5(C)[C@H]4CC[C@]23C)n1` [Example 191, (3S,8S,9S,10R,13R,14S,17R)-10,13-dimethyl-17-((R)-4-(4-methylpyrimidin-2-yl)butan-2-yl)-2,3,4,7,8,9,10,11,12,13,14,15,16,17-tetradecahydro-1H-cyclopenta[a]phenanthren-3-ol] the same measures were below 250 nM and 250 to 1000 nM.
For the compound `C[C@H](CCC(=O)N(C)C1CCN(C(=O)N(C)C)CC1)[C@H]1CC[C@H]2[C@@H]3CC=C4C[C@@H](O)CC[C@]4(C)[C@H]3CC[C@]12C` [Example 644, 4-((R)-4-((3S,8S,9S,10R,13R,14S,17R)-3-hydroxy-10,13-dimethyl-2,3,4,7,8,9,10,11,12,13,14,15,16,17-tetradecahydro-1H-cyclopenta[a]phenanthren-17-yl)-N-methylpentanamido)-N,N-dimethylpiperidine-1-carboxamide], the IC50 in test [1] is below 250 nM. Further, the EC50 in test [2] is above 10000 nM.
`COc1cc(N2CCN(C(=O)CC[C@@H](C)[C@H]3CC[C@H]4[C@@H]5CC=C6C[C@@H](O)CC[C@]6(C)[C@H]5CC[C@]34C)C[C@@H]2C)ncn1` [Example 646, (R)-4-((3S,8S,9S,10R,13R,14S,17R)-3-hydroxy-10,13-dimethyl-2,3,4,7,8,9,10,11,12,13,14,15,16,17-tetradecahydro-1H-cyclopenta[a]phenanthren-17-yl)-1-((S)-4-(6-methoxypyrimidin-4-yl)-3-methylpiperazin-1-yl)pentan-1-one] displayed a half-maximal inhibitory concentration (IC50) in test [1] below 250 nM. For the same compound, the EC50 in test [2] is above 10000 nM.
For `C[C@H](CCC(=O)N1CCN(c2ccnc(N)n2)CC1)[C@H]1CC[C@H]2[C@@H]3CC=C4C[C@@H](O)CC[C@]4(C)[C@H]3CC[C@]12C` [Example 560, (R)-1-(4-(2-aminopyrimidin-4-yl)piperazin-1-yl)-4-((3S,8S,9S,10R,13R,14S,17R)-3-hydroxy-10,13-dimethyl-2,3,4,7,8,9,10,11,12,13,14,15,16,17-tetradecahydro-1H-cyclopenta[a]phenanthren-17-yl)pentan-1-one] the same measures were below 250 nM and above 10000 nM.
The compound `C[C@H](CCC(=O)N1CCN(C(=O)c2cn(C)nn2)C[C@@H]1C)[C@H]1CC[C@H]2[C@@H]3CC=C4C[C@@H](O)CC[C@]4(C)[C@H]3CC[C@]12C` [Example 587, (R)-4-((3S,8S,9S,10R,13R,14S,17R)-3-hydroxy-10,13-dimethyl-2,3,4,7,8,9,10,11,12,13,14,15,16,17-tetradecahydro-1H-cyclopenta[a]phenanthren-17-yl)-1-((S)-2-methyl-4-(1-methyl-1H-1,2,3-triazole-4-carbonyl)piperazin-1-yl)pentan-1-one] had an IC50 in test [1] below 250 nM. Moreover, in test [2], the EC50 was above 10000 nM.
The like results for `C[C@H](CCC(=O)N1CCN(C(=O)OC2CC2)C[C@@H]1C)[C@H]1CC[C@H]2[C@@H]3CC=C4C[C@@H](O)CC[C@]4(C)[C@H]3CC[C@]12C` [Example 584] were, in that order, below 250 nM and above 10000 nM.
`C[C@@H](NC(=O)C(=O)N(C)C)[C@H]1CC[C@H]2[C@@H]3CC=C4C[C@@H](O)CC[C@]4(C)[C@H]3CC[C@]12C` (single isomer, unassigned) [Example 118] displayed a half-inhibitory concentration (IC50) in test [1] above 10000 nM. Further, in test [2], the EC50 was above 10000 nM.
Turning to `COC(=O)N1CCN(C(=O)C[C@@H](C)[C@H]2CC[C@H]3[C@@H]4CC=C5C[C@@H](O)CC[C@]5(C)[C@H]4CC[C@]23C)CC1` [Example 593, Methyl 4-[(3R)-3-[(1R,3aS,3bS,7S,9aR,9bS,11aR)-7-hydroxy-9a,11a-dimethyl-1H,2H,3H,3aH,3bH,4H,6H,7H,8H,9H,9aH,9bH,10H,11H,11aH-cyclopenta[a]phenanthren-1-yl]butanoyl]piperazine-1-carboxylate], the concentration for half-maximal inhibition (IC50) in test [1] was 1000 to 10000 nM. In addition, the EC50 in test [2] was above 10000 nM.
The like results for `C[C@H](CCC(=O)N1CCN(c2cnn(C)c2)[C@@H](C)C1)[C@H]1CC[C@H]2[C@@H]3CC=C4C[C@@H](O)CC[C@]4(C)[C@H]3CC[C@]12C` [Example 656, (R)-4-((3S,8S,9S,10R,13R,14S,17R)-3-hydroxy-10,13-dimethyl-2,3,4,7,8,9,10,11,12,13,14,15,16,17-tetradecahydro-1H-cyclopenta[a]phenanthren-17-yl)-1-((S)-3-methyl-4-(1-methyl-1H-pyrazol-4-yl)piperazin-1-yl)pentan-1-one] were, in that order, below 250 nM and above 10000 nM.

These data come from patent publication US20230340011A1 (Asteroid Therapeutics, priority 2022, published 2023).
